# Laboratory results from ChEMBL document CHEMBL1143809, “New bis-N9-(methylphenylmethyl)purine derivatives: synthesis and antitumor activity” (2007).
# Columns and labels:
# Format in all cases: functional
# RXF 393 = assay: Growth inhibition of human RXF393 cells after 48 hrs by SRB protein assay; conditions: RXF 393, 48 h; for CC50: read-out: LC50 (the source's name)
# [1] = Growth inhibition of human NCL-H23 cells after 48 hrs by SRB protein assay; conditions: NCL-H23, 48 h
# M14 = assay: Growth inhibition of human M14 cells after 48 hrs by SRB protein assay; conditions: M14, 48 h
# [2] = Growth inhibition of human LOX MIVI cells after 48 hrs by SRB protein assay
# SW-620 = assay: Growth inhibition of human SW620 cells after 48 hrs by SRB protein assay; conditions: SW-620, 48 h; for CC50: read-out: LC50 (the source's name)
# UACC-62 = assay: Growth inhibition of human UACC62 cells after 48 hrs by SRB protein assay; conditions: UACC-62, 48 h
# HOP-62 = assay: Growth inhibition of human HOP62 cells after 48 hrs by SRB protein assay; conditions: HOP-62, 48 h
# HT-29 = assay: Growth inhibition of human HT29 cells after 48 hrs by SRB protein assay; conditions: HT-29, 48 h
# SK-MEL-5 = assay: Growth inhibition of human SK-MEL-5 cells after 48 hrs by SRB protein assay; conditions: SK-MEL-5, 48 h
# HCT-15 = assay: Growth inhibition of human HCT15 cells after 48 hrs by SRB protein assay; conditions: HCT-15, 48 h
# 786-0 = assay: Growth inhibition of human 786-0 cells after 48 hrs by SRB protein assay; conditions: 786-0, 48 h; for CC50: read-out: LC50 (the source's name)
# A498 = assay: Growth inhibition of human A498 cells after 48 hrs by SRB protein assay; conditions: A498, 48 h; for CC50: read-out: LC50 (the source's name)
# SF-268 = assay: Growth inhibition of human SF268 cells after 48 hrs by SRB protein assay; conditions: SF-268, 48 h
# MDA-MB-231 = assay: Growth inhibition of human MDA-MB-231 cells after 48 hrs by SRB protein assay; conditions: MDA-MB-231, 48 h
# KM12 = assay: Growth inhibition of human KM12 cells after 48 hrs by SRB protein assay; conditions: KM12, 48 h
# CAKI-1 = assay: Growth inhibition of human CAKI1 cells after 48 hrs by SRB protein assay; conditions: CAKI-1, 48 h; for CC50: read-out: LC50 (the source's name)
# OVCAR-4 = assay: Growth inhibition of human OVCAR4 cells after 48 hrs by SRB protein assay; conditions: OVCAR-4, 48 h
# SNB-75 = assay: Growth inhibition of human SNB75 cells after 48 hrs by SRB protein assay; conditions: SNB-75, 48 h; for CC50: read-out: LC50 (the source's name)
# UACC-257 = assay: Growth inhibition of human UACC257 cells after 48 hrs by SRB protein assay; conditions: UACC-257, 48 h; for CC50: read-out: LC50 (the source's name)
# COLO 205 = assay: Growth inhibition of human COLO205 cells after 48 hrs by SRB protein assay; conditions: COLO 205, 48 h
# U-251 = assay: Growth inhibition of human U251 cells after 48 hrs by SRB protein assay; conditions: U-251, 48 h; for CC50: read-out: LC50 (the source's name)
# HCC 2998 = assay: Growth inhibition of human HCC2998 cells after 48 hrs by SRB protein assay; conditions: HCC 2998, 48 h
# RPMI-8226 = assay: Growth inhibition of human RPMI8226 cells after 48 hrs by SRB protein assay; conditions: RPMI-8226, 48 h; for CC50: read-out: LC50 (the source's name)
# PC-3 = assay: Growth inhibition of human PC3 cells after 48 hrs by SRB protein assay; conditions: PC-3, 48 h; for CC50: read-out: LC50 (the source's name)
compound,measurement,setting,value
Clc1nc(Cl)c2ncn(Cc3ccc(Cn4cnc5c(Cl)nc(Cl)nc54)cc3)c2n1,GI50,RXF 393,< 0.01 µM
same,CC50,RXF 393,20.9 µM
same,GI50,[1],13.8 µM
same,LC50,[1],51.3 µM
same,TGI,[1],26.9 µM
same,LC50,M14,52.5 µM
same,TGI,M14,27.5 µM
same,GI50,[2],2.88 µM
same,LC50,[2],41.7 µM
same,TGI,[2],17.4 µM
same,GI50,SW-620,< 0.01 µM
same,TGI,SW-620,2.63 µM
same,CC50,SW-620,8.31 µM
same,GI50,UACC-62,13.8 µM
same,LC50 (concentration killing 50% of cells),UACC-62,51.3 µM
same,TGI,UACC-62,26.9 µM
same,LC50,HOP-62,51.3 µM
same,TGI,HOP-62,26.3 µM
same,GI50,HT-29,< 0.01 µM
same,LC50,HT-29,39.8 µM
same,TGI,HT-29,15.8 µM
same,GI50,SK-MEL-5,10.7 µM
same,LC50,SK-MEL-5,47.9 µM
same,TGI,SK-MEL-5,22.9 µM
same,GI50,HCT-15,13.2 µM
same,LC50,HCT-15,51.3 µM
same,TGI,HCT-15,25.7 µM
same,GI50,786-0,14.5 µM
same,TGI,786-0,27.5 µM
same,CC50,786-0,52.5 µM
same,TGI,A498,22.9 µM
same,CC50,A498,47.9 µM
same,GI50,SF-268,15.5 µM
same,LC50,SF-268,> 100 µM
same,TGI,SF-268,38.9 µM
same,LC50 (50% lethal concentration),MDA-MB-231,46.8 µM
same,TGI,MDA-MB-231,21.9 µM
same,GI50,KM12,14.1 µM
same,LC50 (concentration killing 50% of cells),KM12,52.5 µM
same,TGI,KM12,27.5 µM
same,GI50,CAKI-1,15.8 µM
same,TGI,CAKI-1,30.2 µM
same,CC50,CAKI-1,57.5 µM
same,GI50,OVCAR-4,14.3 µM
same,LC50,OVCAR-4,52.5 µM
same,TGI,OVCAR-4,27.5 µM
same,GI50,SNB-75,< 0.01 µM
same,TGI,SNB-75,17 µM
same,CC50,SNB-75,41.7 µM
same,TGI,UACC-257,25.1 µM
same,CC50,UACC-257,50.1 µM
same,LC50,COLO 205,41.7 µM
same,TGI,COLO 205,17.4 µM
same,GI50,U-251,13.8 µM
same,TGI,U-251,26.9 µM
same,CC50,U-251,51.3 µM
same,LC50,HCC 2998,50.1 µM
same,TGI,HCC 2998,25.1 µM
same,GI50,RPMI-8226,6.45 µM
same,TGI,RPMI-8226,25.1 µM
same,CC50,RPMI-8226,75.9 µM
same,GI50,PC-3,12.9 µM
same,TGI,PC-3,25.7 µM
same,CC50,PC-3,50.1 µM
Clc1nc(Cl)c2ncn(Cc3cccc(Cn4cnc5c(Cl)nc(Cl)nc54)c3)c2n1,GI50,RXF 393,1.9 µM
same,TGI,RXF 393,3.71 µM
same,CC50,RXF 393,7.24 µM
same,GI50,[1],8.51 µM
same,LC50,[1],52.5 µM
same,TGI,[1],21.9 µM
same,GI50,M14,2.75 µM
same,LC50,M14,33.9 µM
same,TGI,M14,7.58 µM
same,GI50,[2],2.23 µM
same,LC50,[2],21.9 µM
same,TGI,[2],5.62 µM
same,GI50,SW-620,1.82 µM
same,TGI,SW-620,3.31 µM
same,CC50,SW-620,6.16 µM
same,GI50,UACC-62,2.39 µM
same,LC50 (concentration killing 50% of cells),UACC-62,22.4 µM
same,TGI,UACC-62,5.88 µM
same,GI50,HOP-62,5.01 µM
same,LC50,HOP-62,51.3 µM
same,TGI,HOP-62,17.8 µM
same,GI50,HT-29,4.46 µM
same,LC50,HT-29,> 100 µM
same,TGI,HT-29,> 100 µM
same,GI50,SK-MEL-5,2.45 µM
same,LC50,SK-MEL-5,22.4 µM
same,TGI,SK-MEL-5,5.88 µM
same,GI50,HCT-15,5.75 µM
same,LC50,HCT-15,74.1 µM
same,TGI,HCT-15,22.4 µM
same,GI50,786-0,12.3 µM
same,TGI,786-0,26.3 µM
same,CC50,786-0,57.5 µM
same,GI50,A498,4.57 µM
same,TGI,A498,17.4 µM
same,CC50,A498,46.8 µM
same,GI50,SF-268,12.9 µM
same,LC50,SF-268,75.9 µM
same,TGI,SF-268,31.6 µM
same,GI50,MDA-MB-231,2.63 µM
same,LC50 (50% lethal concentration),MDA-MB-231,30.2 µM
same,TGI,MDA-MB-231,7.07 µM
same,GI50,KM12,2.88 µM
same,LC50 (concentration killing 50% of cells),KM12,33.1 µM
same,TGI,KM12,8.91 µM
same,GI50,CAKI-1,12 µM
same,TGI,CAKI-1,26.3 µM
same,CC50,CAKI-1,57.5 µM
same,GI50,OVCAR-4,15.1 µM
same,LC50,OVCAR-4,55 µM
same,TGI,OVCAR-4,28.8 µM
same,GI50,SNB-75,2.23 µM
same,TGI,SNB-75,5.62 µM
same,CC50,SNB-75,93.3 µM
same,GI50,UACC-257,4.78 µM
same,TGI,UACC-257,17.4 µM
same,CC50,UACC-257,56.2 µM
same,GI50,COLO 205,3.38 µM
same,LC50,COLO 205,> 100 µM
same,TGI,COLO 205,> 11.2 µM
same,GI50,U-251,3.89 µM
same,TGI,U-251,13.8 µM
same,CC50,U-251,38.9 µM
same,GI50,HCC 2998,2.39 µM
same,LC50,HCC 2998,25.7 µM
same,TGI,HCC 2998,7.07 µM
same,GI50,RPMI-8226,2.57 µM
same,TGI,RPMI-8226,11.2 µM
same,CC50,RPMI-8226,> 100 µM
same,GI50,PC-3,3.98 µM
same,TGI,PC-3,13.5 µM
same,CC50,PC-3,40.7 µM
